Counter-ions that a name gives are not always drawn.
Key:
Type in all cases: cell-based, mouse
GAPDH target gene iNos = experiment: QPCR/immunoblot of iNos in BMDMs; conditions: WT BMDMs, HA 1 μM 1 hour, LPS 3 or 6 hours
Method: (§1) FIGS. 7A-K. Fumarate regulates pyroptosis independently of NRF2 and GAPDH. (A-B) Kinetic cell death data of WT primary BMDMs treated with LPS for 2 hours, DMSO (vehicle) or fumarate (25 μM) or heptilidic acid (HA) (0.5 μM or 1 μM) (A) or ML385 (1 μM) (B) followed by nigericin (10 μM) for 6 hours. (C-D) LDH (C) and IL-1B (D) release from WT primary BMDMs treated with LPS for 2 hours, DMSO (vehicle) or fumarate (25 μM) for 1 hour, HA or ML385 (1 μM) for 1 hour followed by nigericin (10 μM) or 1 hour. (E-F) Immunoblot analysis of GSDMD in cell lysates from WT BMDMs treated as in (B) with the indicated inhibitors. (G-H) QPCR (G) and immunoblot (H) analysis of iNos in WT BMDMs treated with DMSO (vehicle) or HA (1 μM) for 1 hour and LPS for 3 (G) or 6 (H) hours. (I) QPCR analysis of Hmox1 mRNA in WT BMDMs treated with DMSO (vehicle) or ML385 (1 μM) for 3 hours. (J-K) LDH assay (J) and immunoblot analysis of GSDMD (K) in WT BMDMs transfected with control non-targeting siRNA or NRF2-specific siRNAs (50 nM) for 48 hours followed by treatment with LPS for 2 hours, DMSO (vehicle) or fumarate (25 μM) and nigericin (10 μM) or 1 hour. A, B, E, F, H, K representative images from 3 independent experiments. C, D, G, I, K pooled data from 3 independent experiments. *, P<0.01, ****, P<0.00001 (Two-way ANOVA). Error bars show means±SD (A, B) or SEM (C, D, G, I, J).

[1] = system: Bone marrow-derived macrophages (BMDMs); experiment: LPS-nigericin inflammasome activation/pyroptosis in BMDMs; conditions: for LPS-Nig-induced release of LDH / LPS-Nig-induced release of IL-1β / kinetic cell death / formation of GSDMD-N: WT BMDMs; for LPS-Nig-induced release of LDH / LPS-Nig-induced release of IL-1β / LPS-Nig induced pyroptosis (inhibitory effect): LPS 2 hr; for LPS-Nig-induced release of LDH / LPS-Nig-induced release of IL-1β: compound 1 hour (fumarate 25 μM), then nigericin; for LPS-Nig-induced release of IL-1β: ELISA; for kinetic cell death / formation of GSDMD-N: LPS-Nig; for kinetic cell death: SYTOX orange, 0-6 hrs; for formation of GSDMD-N: immunoblot; for LPS-Nig induced pyroptosis (inhibitory effect): BMDMs, compound 25 μM 1 hour, nigericin
Method: Human kidney cell line HEK293T was cultured in Dulbecco's modified Eagle's medium supplemented with 10% (v/v) fetal bovine serum, 100 U/ml penicillin and 100 µg/ml streptomycin. Human peripheral blood monocyte cell line, THP1 cells were cultured in RPMI-1640 medium supplemented with 10% (v/v) fetal bovine serum, 100 U/ml penicillin and 100 µg/ml streptomycin. For isolation of BMDMs, tibias and femurs were removed from wild type and GsdmD^−/− mice and bone marrow was flushed with complete DMEM-medium. Cells were plated in medium containing 20% (v/v) conditioned medium of L929 mouse fibroblasts cultured for 7 days at 37° C. in a humidified atmosphere of 5% C02. Medium was replaced every 3 days.
Conditioned media or serum was collected as indicated and IL-1β or TNF-α, were quantified by sandwich ELISA (R&D Systems).
Cells were plated, treated and incubated in phenol red free medium. Following treatment medium was collected and assessed for LDH release using the CytoTox96 non-radioactive cytotoxicity assay (Promega) as per manufacturer's instructions. Kinetic cell death assays were performed using SytoxOrange and the Biotek Cytation5.
For noncanonical inflammasome activation, cells were primed with […] Pam3CSK4 (Invivogen) for 2 h, followed by transfection of LPS (2 μg/ml) using Lipofectamine 2000 for 16 hours.
Primary BMDMs from WT or GsdmD^−/− mice were cultured in 12-well plates (1×10^6 cells per ml; 1 ml) or 10 cm dishes (2×10^6 cells per ml; 10 ml). HEK293T cells (2.5×10^5 cells per ml; 3 ml) were cultured in 6-well plates and transfected with FLAG-tagged GSDMD constructs where indicated. For cell lysate analysis cells were lysed directly in 1× Lamelli sample buffer. For native gel analysis cells were lysed in NP-40 lysis buffer (50 mM Tris-HCl, pH 7.4, containing 150 mM NaCl, 0.5% (w/v) IgePal, 50 mM NaF, 1 mM Na3VO4, 1 mM dithiothreitol, 1 mM phenylmethylsulfonyl fluoride and protease inhibitor cocktail. For immunoprecipitation of GSDMD, cells were treated as indicated and then collected in 500 μl RIPA buffer, followed by incubation for 15 min on ice. Lysates were incubated with GSDMD antibody and protein A-protein G-agarose was added to each sample, followed by incubation overnight at 4° C. Immunoprecipitates were collected by centrifugation and washed four times with 1 ml of RIPA buffer. Immunprecipates were eluted from beads using 1× sample buffer. Samples were resolved by SDS-PAGE and stained using simply blue safe stain or transferred to nitrocellulose membranes and analyzed by immunoblot. Immunoreactivity was visualized by the Odyssey Imaging System (LICOR Biosciences). For immunoblotting of IL-1β in cell supernatants, conditioned medium was collected and filtered using filter spin columns to reduce salt and remove abundant serum proteins. Filtrates were added to 4×SDS-PAGE sample buffer and resolved by SDS-PAGE for immunoblot analysis. GSDMD (ab209845) and GSDME antibodies were from abcam (ab215191). Caspase 1 antibody was from adipogen. Fumarase antibody was from cell signalling and anti-β-actin (AC-15; A1978) were from Sigma; anti-mouse IRDye™ 680 (926-68070) and anti-rabbit IRDye™ 800 (926-32211) were from LI-COR Biosciences.
Numerous studies have shown that cell metabolism impacts inflammatory responses. LPS activated macrophages switch from oxidative phosphorylation to aerobic glycolysis. Krebs cycle intermediates such as succinate and itaconate accumulate and moonlight as positive and negative regulators of inflammatory gene expression (3-8). To determine if Krebs cycle intermediates modulate pyroptosis, we tested their effect on inflammasome responses. Bone marrow-derived macrophages (BMDMs) were primed with LPS (2 hr) before being exposed to metabolites and then exposed to nigericin (Nig) and inflammasome activation/pyroptosis measured. The metabolites were added after LPS to avoid any impact on transcription. […] Fumarate impaired kinetic cell death (0-6 hrs) (FIG. 1E, FIG. 5A). […]

NRF2 target gene Hmox1 = experiment: QPCR of Hmox1 mRNA in BMDMs; conditions: WT BMDMs, ML385 1 μM 3 hours
Method: as §1

| Compound | expression of GAPDH target gene iNos (GAPDH target gene iNos) | LPS-Nig-induced release of LDH [1] | LPS-Nig-induced release of IL-1β [1] | kinetic cell death [1] | formation of GSDMD-N [1] | expression of NRF2 target gene Hmox1 (NRF2 target gene Hmox1) | LPS-Nig induced pyroptosis (inhibitory effect) [1] |
| --- | --- | --- | --- | --- | --- | --- | --- |
| CC(C)[C@H]1CC[C@@]2(CO2)[C@H]2C(=O)OCC(C(=O)O)=C[C@H]12 [Heptilidic acid] | inhibited | no impact | no impact | no impact | no impact |  |  |
| Cc1ccccc1C(=O)N1CCc2cc(-c3nc(NC(=O)Cc4ccc5c(c4)OCO5)sc3C)ccc21 [ML385] |  | no impact | no impact | no impact | no impact | inhibited |  |
| COC(=O)/C=C/C(=O)O [MMF, Monomethyl fumarate] |  |  |  |  |  |  | no inhibitory effect |
| COC(=O)/C=C/C(=O)OCCN1C(=O)CCC1=O [diroximel fumarate] |  |  |  |  | blocked |  | blocked |
| CCN(CC)C(=O)COC(=O)/C=C/C(=O)OC [tepilamide fumarate] |  |  |  |  | blocked |  | blocked |
